In general, viability, T/C refers to the result in the treated group divided by that in the control group, in per cent. By IC50 is commonly meant the concentration needed to halve the response being measured.

viability, T/C and IC50 data for six compounds are collected here from PubChem BioAssay AID2060892 (Molecular Pharmacology Branch, DTP, NCI, 2025).

The assay deals with HOP-62 complex spheroids with HUVEC/MSC, viability. The experiment in a line: Anticancer human tumor HOP-62 cell line growth inhibition [RAS].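 On all read-outs here: spheroids exposed to agents for seven days before readout.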 Particulars: for viability, T/C: stronger effect = lower value; for IC50: curve of compound. An excerpt:
RAS pathway inhibitors in Combinations in Complex Spheroids
A high-throughput screen of multi-cell type tumor spheroids was designed to identify active combinations of RAS pathway inhibitors and targeted small molecules. Complex spheroids include a stromal component modeled by human endothelial cells (HUVEC) and fibroblasts modeled by human mesenchymal stem cells (MSCs). The concentration ranges selected for each drug and investigational agent were based upon clinically achievable concentrations if the clinical Cmax of the agent was known.
Compounds. The drugs and investigational agents: abemaciclib (NSC768073), cobimetinib (NSC768068), divarasib (GDC6063, NSC841802), docetaxel (NSC628503), GDC-1971 (RLY-1971, NSC841576), gemcitabine (NSC613327), inavolisib (NSC800729), ipatasertib (NSC767898), KB-0742 (NSC834161), MRTX-1133 (NSC836407), osimertinib (NSC779217), RMC-4630 (NSC839698), RMC-6236 (NSC851965), RMC-6291 (NSC852671), Ro-3306 (NSC812927), sapanisertib (NSC764658), SN-38 (NSC673596), staurosporine (NSC755774), SY5609 (NSC837396), and tovorafenib (DAY101, NSC766906), were obtained from the National Cancer Institute (NCI) Developmental Therapeutics Program Chemical Repository. The FDA-approved anticancer drug set is available from the NCI Developmental Therapeutics Program. […] The stock solutions were prepared in dimethyl sulfoxide (DMSO, Sigma-Aldrich, St. Louis, MO, cat. D2650) at 800-fold the tested concentration and stored at -70 degrees C prior to their use. All drugs and investigational agents were tested over a range starting from a high concentration at or near the clinical Cmax and decreasing in half-log increments. If the clinical Cmax for an agent had not been determined, the highest concentration tested was 10 microM.
Cell Culture. All cells were maintained in an incubator at 37 degrees C and 5% CO2 with 95% humidity. The PDC lines were cultured according to standard operating procedures established by the NCI PDMR. All PDCs were thawed and cultured in Matrigel-coated flasks prepared with a working solution of 1X Ham's F-12 nutrient mix, without supplementation (Invitrogen, Waltham, MA, cat. 11765054), 100 U/mL penicillin-streptomycin (Invitrogen, cat. 15140122), and 2.5% Matrigel (Corning Inc., Corning, NY, cat. 354248) for the first three passages. The 362531-283-R-J2-PDC and 782815-120-R-J1-PDC lines were cultured in 6C/Colon 1B media, which includes advanced DMEM/F-12 (Thermo Fisher Scientific, cat. 12634028), 10 mM HEPES (Thermo Fisher Scientific, cat. 15630080), 1X GlutaMAX supplement (Thermo Fisher Scientific, cat. 35050061), 0.1 mg/mL primocin (InvivoGen, San Diego, CA, cat. ant-pm-2), 10% defined fetal bovine serum, heat inactivated (HyClone Laboratories Inc., Logan, UT, cat. SH30070.03HI), 50% L-WRN conditioned media (ATCC, cat. CRL-3276), 1.25 mM N-Acetyl-L-cysteine (Sigma-Aldrich, cat. A9165), 10 mM nicotinamide (Sigma-Aldrich, cat. N0636), 1X B-27 supplement (Thermo Fisher Scientific, cat. 17504044), 1X N-2 supplement (Thermo Fisher Scientific, cat. 17502048), 50 ng/mL human EGF (Thermo Fisher Scientific, cat. PHG0311), and 10 microM Y-27632 dihydrochloride (Tocris Bioscience, cat. 1254). The K12877-001-R-J1-PDC line was cultured in 6I media, which includes all 6C/Colon 1B media plus 10 ng/mL human FGF-10 (PeproTech, cat. 100-26), 1 ng/mL human FGF-2 (PeproTech, cat. 100-18B), 1 µM prostaglandin E2 (Tocris Bioscience, cat. 2296), […] hydrocortisone (Sigma-Aldrich, cat. H4001), and […] bovine insulin (Sigma-Aldrich, cat. I6634). The K86415-001-R-J1-PDC line was cultured in 6D media, which includes all 6C/Colon 1B media components minus the L-WRN conditioned media. The 485176-168-R4-J1-PDC was cultured in PANC media, which includes all 6C/Colon 1B media plus 100 ng/mL human FGF-10 (PeproTech, cat. 100-26), 500 nM SB-431542 (Selleckchem, cat. S1067), and 10 nM gastrin (Tocris Bioscience, cat. 3006). […]

“And” between values parts separate entries of the source, which are not always exact repeats. Identical values can stand only once.

Consider `CC(Nc1ccc2c(c1)OCCn1cc(N3C(=O)OCC3C(F)F)nc1-2)C(N)=O` (stereo not drawn), for which the IC50 was 2.31 µM and > 10 µM and 1.99 µM. Besides, where the note is “compound 10 µM”, the viability, T/C was 36.1% (2×) and 49.9% and 54.1%.

On to `CC1(O)CCCC1n1c(=O)c(C(F)F)cc2cnc(NC3CCN(S(C)(=O)=O)CC3)nc21` (stereo not drawn), for which the viability, T/C runs as follows: (compound 0.0316 µM) 100% [middle of 4 runs]; (compound 10 µM) 4.01% [middle of 4 runs].

Turning to `CCC(CC)c1cc(NC2CCC(N)C2)n2nccc2n1` (stereo not drawn), the IC50 was 1.9 µM and 1.97 µM and 2.03 µM. Also, the viability, T/C (compound 0.0316 µM) is 115% [middle of 4 runs]. Further, under “compound 0.1 µM”, the viability, T/C is 112% [middle of 4 runs]. The viability, T/C (compound 0.316 µM) was 112% [middle of 4 runs]. Also, the viability, T/C (compound 1 µM) was 109% and 108% (2×) and 113%. Also, for the setting “compound 3.16 µM”, the viability, T/C is 9.12% [middle of 4 runs]. The viability, T/C (compound 10 µM) is 1.18% [middle of 4 runs].

Take `C[C@@H](NC(=O)c1ncnc(N)c1Cl)c1ncc(C(=O)Nc2cc(C(F)(F)F)c(Cl)cn2)s1`: the IC50 is greater than 10 µM. Also, the viability, T/C (compound 0.0316 µM) is 102% (2×) and 107% and 101%. In addition, where the note is “compound 0.1 µM”, the viability, T/C is 98.6% [middle of 4 runs]. Besides, the viability, T/C (compound 0.316 µM) is 105% and 98.1% and 104% (2×). Further, the viability, T/C (compound 1 µM) was 104% [middle of 4 runs]. The viability, T/C (compound 3.16 µM) was 96% [middle of 4 runs].

As to `Cc1nc(N2CCC3(CC2)COC(C)C3N)c(CO)nc1Sc1ccnc(N)c1Cl` (stereo not drawn), the IC50 is greater than 10 µM. Also, under “compound 0.0316 µM”, the viability, T/C is 108% [middle of 4 runs]. For the same compound, the viability, T/C (compound 0.1 µM) was 106% (3×) and 107%. For the same compound, the viability, T/C (compound 0.316 µM) is 102% [middle of 4 runs].

As to `NC1c2ccccc2OC12CCN(c1cnc3c(N4CCCc5ncccc54)n[nH]c3n1)CC2` (stereo not drawn), the IC50 is 4.45 µM and > 10 µM and 9.13 µM. Also, the viability, T/C (compound 0.0316 µM) is 106% [middle of 4 runs].
